Source: patent US20240269143A1, “COMBINATION THERAPY COMPRISING A MAT2A INHIBITOR AND TYPE I PRMT INHIBITOR” (IDEAYA BIOSCIENCES, INC., priority 2021, published 2024)

Key:
[1] = tested on: HCT-116 MTAP-deleted tumors; assay: Anti-tumor efficacy in HCT-116 MTAP-deleted mouse xenograft; format: in vivo; details: Day fourteen
Protocol: (§1) The effect of Compound A and Compound B as single-agent anti-tumor agents and in combination was assessed in the HCT-116 human colon tumor cell line, MTAP isogenic pair (MTAP proficient (WT) or MTAP-deleted). Cells were expanded in DMEM/F12 GlutaMAX (Fisher Scientific, Catalog Number 10-565-018) with 10% fetal bovine serum. These cells were free of mycoplasma and authenticated as HCT-116 by STR profiling. Two and a half million cells in log growth phase were resuspended in Hanks Balanced Salt Solution containing 50% Matrigel and implanted subcutaneously into the flank of each recipient female CB17/lcr-Prkd^scid/lcrlcoCrl mouse. Mice were housed in microisolator cages with corn cob bedding with additional enrichment consisting of sterile nesting material (Innovive) and Bio-huts (Bio-Serv). Water (Innovive) and diet (Teklad Global 19% Protein Extruded Diet 2919, Irradiated) were provided ad libitum. The environment was maintained on a 12-hour light cycle at approximately 68-72° F. and 40-60% relative humidity.
(§2) Tumor Volume (TV) was calculated using the following formula: TV (mm^3)=(width×width×length)/2. No dose holidays were provided for during the study and all mice were euthanized following the final dose on Day fourteen. Tumor growth inhibition (TGI) was calculated by [(TV controlfinal−TV treatedfinal)/(TV controlfinal−TV controlinitial)×100]. TV was analyzed for statistical significance utilizing GraphPad Prism version 9.1.0. Repeated Measures 2-Way ANOVA with Tukey's Multiple Comparisons was utilized, and P-values were presented from the final tumor measurement and were considered statistically significant if less than 0.05.
(§3) Mean tumor volume at dosing start was approximately 128-145 mm^3, with seven mice randomized to each treatment group. The study design was identical for both models, with the study consisting of six treatment groups. Mice were dosed orally, once per day, with Vehicle, Compound A at 5 mg/kg, Compound B at 9.375 or 18.75 mg/kg, or Compound A at 5 mg/kg and Compound B at 9.375 mg/kg, or Compound A at 5 mg/kg and Compound B at 18.75 mg/kg. The doses were staggered with Compound A given first and Compound B administered 2 hours later. Likewise, the Vehicle B (for Compound B, Saline) was administered to animals 2 hours later than the Vehicle A (for Compound A, 0.5% 400 cps methylcellulose with 0.5% Tween-80 in sterile water).

HCT-116 MTAP WT tumors = assay: Anti-tumor efficacy in HCT-116 MTAP WT mouse xenograft; format: in vivo; details: Day fourteen
Protocol: as §1, §2, §3

BxPC-3 tumors = assay: Anti-tumor efficacy in pancreatic xenograft BxPC-3; format: in vivo, mouse; details: Day 28
Protocol: The BxPC-3 tumor cell line was maintained in vitro as a monolayer culture in RPMI 1640 medium supplemented with 10% fetal bovine serum at 37° C. in an atmosphere of 5% CO2 in air. The tumor cells were routinely sub-cultured, not to exceed 4-5 passages. The cells growing in an exponential growth phase were harvested and counted for tumor inoculation. Each mouse was inoculated subcutaneously on the right flank with 5 million BxPC-3 tumor cells in 0.1 mL RPMI 1640 and Matrigel mixture (1:1 ratio) for tumor development.
Tumor Volume (TV) was calculated using the following formula: TV (mm^3)=(width×width×length)/2. No dose holidays were provided for during the study and all mice were euthanized following the final dose on Day 28. Tumor growth inhibition (TGI) was calculated by [(TV controlfinal−TV treatedfinal)/(TV controlfinal−TV controlinitial)×100]. TV was analyzed for statistical significance using GraphPad Prism version 9.1.0. Repeated Measures 2-Way ANOVA with Tukey's Multiple Comparisons was utilized, and P-values were presented from the final tumor measurement and were considered statistically significant if less than 0.05. The treatment started when the mean tumor volume reached about 197 mm^3. Mice were then randomly assigned to respective groups so that the mean starting tumor volume was the same among groups. Mice were dosed orally, once per day, with Vehicle, Compound A at 10 mg/kg, Compound B at 9.375 or 18.75 mg/kg, or Compound A at 10 mg/kg and Compound B at 9.375 mg/kg, or Compound A at 10 mg/kg and Compound B at 18.75 mg/kg. The Doses were staggered with Compound A given first and Compound B administrated 2 hours later. Likewise, the Vehicle B (for Compound B, Saline) was administrated to animals 2 hours later than the Vehicle A (for Compound A, 0.5% 400 cps methylcellulose with 0.5% Tween-80 in sterile water).

[2] = tested on: KP4 pancreatic cancer cell line; assay: 5-day proliferation screening, combination synergy (HSA, Loewe, Bliss); format: cell-based; details: HSA and Loewe models, single agent activity of Compound B
Protocol: (§4) A 4-day proliferation screening was done in colorectal cancer lines HCT116 and HCT116 MTAP−/− (CRISPR Knock-out), and a 5-day proliferation screening was performed in pancreatic cancer cell lines BxPC3, KP4 and lung cancer line, NCI-H838. The nuclei were fluorescent tagged for all the cell lines. Combinations included a 5-fold titration from 10 uM for MAT2Ai (Compound A) and 5-fold titration from 20 uM for Type1 PRMTi (Compound B). Cells were plated at a seeding density 1000 cells/well in a 96-well format 24h before treatment and treated the following day with an 8×8 double matrix titration (five-fold dilution series) of Compound A (MAT2Ai) and Compound B (Type I PRMTi). Triplicates were run for each data point. Nuclear count was measured at the end point using the IncuCyte S3 Live-Cell Analysis System. Average fluorescence of cells treated with DMSO was set to 100% and the % viable cells were calculated accordingly. Dose response curves for single drug activity and drug-drug synergy for combinations were generated using Combenefit software. Synergy was evaluated using HSA, Loewe, and Bliss models.

[3] = tested on: NCI-H838 lung cancer line; assay: as above; format: cell-based; details: HSA and Loewe models, single agent activity of Compound B
Protocol: as §4

[4] = Compound B 9.375 mg/kg orally once per day
[5] = Compound B 18.75 mg/kg orally once per day
[6] = Compound A 5 mg/kg orally once per day
[7] = Compound A 10 mg/kg orally once per day

In the case of `CCOCC1(COCC)CCC(c2n[nH]cc2CN(C)CCNC)CC1` [Compound B], the “Final TV (mean)” value [1, 4] is reported as 441 mm^3, the “TGI (tumor growth inhibition)” value [1, 4] is reported as 4% and the “Final TV (mean)” value [1, 5] is reported as 357 mm^3. The “TGI (tumor growth inhibition)” value [1, 5] was 30%, the “Final TV (mean)” value (HCT-116 MTAP WT tumors; [4]) was 928 mm^3 and the “TGI (tumor growth inhibition)” value (HCT-116 MTAP WT tumors; [4]) was 13%. The “Final TV (mean)” value (HCT-116 MTAP WT tumors; [5]) was 907 mm^3, the “TGI (tumor growth inhibition)” value (HCT-116 MTAP WT tumors; [5]) was 16% and the “Final TV (mean)” value (BxPC-3 tumors; [4]) was 638 mm^3. The “TGI (tumor growth inhibition)” value (BxPC-3 tumors; [4]) was 44%, the “Final TV (mean)” value (BxPC-3 tumors; [5]) was 415 mm^3 and the “TGI (tumor growth inhibition)” value (BxPC-3 tumors; [5]) was 72%. The “concentration of Compound B above which modest cytotoxicity observed” value [2] was “above 0.8 uM” and the “concentration of Compound B above which modest cytotoxicity observed” value [3] was “above 0.16 uM”.

For `Nc1nc(=O)n(-c2ccccc2Cl)c2nc(C(F)(F)F)ccc12` [Compound A], the “Final TV (mean)” value [1, 6] was 232 mm^3, the “TGI (tumor growth inhibition)” value [1, 6] was 68% and the “Final TV (mean)” value (HCT-116 MTAP WT tumors; [6]) was 539 mm^3. The “TGI (tumor growth inhibition)” value (HCT-116 MTAP WT tumors; [6]) was 56%, the “Final TV (mean)” value (BxPC-3 tumors; [7]) was 686 mm^3 and the “TGI (tumor growth inhibition)” value (BxPC-3 tumors; [7]) was 37%.
